# From patent US9302999B2, “Substituted triazoles as herbicides” (E. I. DU PONT DE NEMOURS AND COMPANY, priority 2012, dated 2016)
# Key:
# Assay type in all cases: in vivo
# [1] = tested on: pigweed (Amaranthus retroflexus); experiment: Test A pre-/postemergence: pigweed
# Method in brief: (§1)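 Plants in loam–sand blend were treated with test chemicals in non-phytotoxic solvent with surfactant, either as preemergence directed soil spray or postemergence at 2–10 cm, one- to two-leaf stage. After about ten days in greenhouse, injury was rated visually against untreated controls on a 0–100 scale (100 = complete control).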
# [2] = tested on: barnyardgrass (Echinochloa crus-galli); experiment: Test A pre-/postemergence: barnyardgrass
# Method in brief: as §1
# [3] = tested on: velvetleaf (Abutilon theophrasti); experiment: Test A pre-/postemergence: velvetleaf
# Method in brief: as §1
# [4] = tested on: foxtail, giant (giant foxtail, Setaria faberii); experiment: Test A pre-/postemergence: foxtail, giant
# Method in brief: as §1
# corn (Zea mays) = experiment: Test A pre-/postemergence: corn
# Method in brief: as §1
# [5] = tested on: sedge, umbrella (small-flower umbrella sedge, Cyperus difformis); experiment: Test C flooded paddy test: sedge, umbrella; conditions: scale 0 to 100 (0 no effect, 100 complete control)
# Method in brief: (§2)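 Plants at 2-leaf stage in pots flooded 3 cm above soil; compounds applied directly into the paddy water, depth maintained. Visual rating against controls after 13–15 days in greenhouse, scale 0 (no effect) to 100 (complete control).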
# [6] = tested on: wheat (Triticum aestivum); experiment: Test A pre-/postemergence: wheat
# Method in brief: as §1
# [7] = tested on: morningglory (Ipomoea spp.); experiment: Test A pre-/postemergence: morningglory
# Method in brief: as §1
# rice (Oryza sativa) = experiment: Test C flooded paddy test: rice; conditions: scale 0 to 100 (0 no effect, 100 complete control)
# Method in brief: as §2
# [8] = tested on: barnyardgrass (Echinochloa crus-galli); experiment: Test C flooded paddy test: barnyardgrass; conditions: scale 0 to 100 (0 no effect, 100 complete control)
# Method in brief: as §2
# [9] = tested on: ducksalad (Heteranthera limosa); experiment: Test C flooded paddy test: ducksalad; conditions: scale 0 to 100 (0 no effect, 100 complete control)
# Method in brief: as §2
# [10] = tested on: crabgrass, large (large crabgrass, Digitaria sanguinalis); experiment: Test A pre-/postemergence: crabgrass, large
# Method in brief: as §1
# [11] = Postemergence, 1000 g ai/ha, visual rating on 0 to 100 scale (0 no effect, 100 complete control), approximately ten days
# [12] = Preemergence, 1000 g ai/ha, 0 to 100 scale, 0 is no effect, 100 is complete control
# [13] = Flood (flooded paddy test), 250 g ai/ha, visual rating after 13 to 15 days
# [14] = Postemergence, 125 g ai/ha, 0 to 100 scale, 0 is no effect, 100 is complete control
# [15] = Postemergence, 500 g ai/ha, visual rating on 0 to 100 scale (0 no effect, 100 complete control), approximately ten days
# [16] = Preemergence, 125 g ai/ha, 0 to 100 scale where 0 is no effect and 100 is complete control
# [17] = Preemergence, 500 g ai/ha, 0 to 100 scale, 0 is no effect, 100 is complete control
# [18] = Preemergence, 125 g ai/ha, 0 to 100 scale (0 no effect, 100 complete control)
# [19] = Flood (flooded paddy test), 125 g ai/ha, visual rating after 13 to 15 days
smiles,measurement,setting,value
CCc1nn(-c2ccc(C(F)(F)F)cc2)nc1Cn1cnc(C(F)(F)F)n1 [Compound 130],Pigweed plant response rating,[1]; [11],100
same,Pigweed plant response rating,[1]; [12],90
same,Barnyardgrass plant response rating,[2]; [11],50
same,Barnyardgrass plant response rating,[2]; [12],50
same,Velvetleaf plant response rating,[3]; [11],100
same,Velvetleaf plant response rating,[3]; [12],20
same,"Foxtail, Giant plant response rating",[4]; [11],80
same,"Foxtail, Giant plant response rating",[4]; [12],90
same,Corn plant response rating,corn (Zea mays); [11],30
same,Corn plant response rating,corn (Zea mays); [12],0
same,"Plant response rating, Sedge, Umbrella",[5]; [13],75
same,"Plant response rating, Sedge, Umbrella","[5]; Flood, 62 g ai/ha",30
same,Wheat plant response rating,[6]; [11],30
same,Wheat plant response rating,[6]; [12],10
same,Morningglory plant response rating,[7]; [11],100
same,Morningglory plant response rating,[7]; [12],40
same,"Plant response rating, Rice",rice (Oryza sativa); [13],15
same,"Plant response rating, Rice","rice (Oryza sativa); Flood, 62 g ai/ha",0
same,"Plant response rating, Barnyardgrass",[8]; [13],15
same,"Plant response rating, Barnyardgrass","[8]; Flood, 62 g ai/ha",0
same,"Plant response rating, Ducksalad",[9]; [13],20
same,"Plant response rating, Ducksalad","[9]; Flood, 62 g ai/ha",0
same,"Crabgrass, Large plant response rating",[10]; [11],90
same,"Crabgrass, Large plant response rating",[10]; [12],90
Cc1nn(-c2ccc(F)cc2)nc1Oc1cccc(C(F)(F)F)c1 [Compound 98],Pigweed plant response rating,[1]; [14],100
same,Pigweed plant response rating,[1]; [15],100
same,"Plant response rating, Pigweed",[1]; [16],60
same,"Plant response rating, Pigweed",[1]; [17],100
same,Barnyardgrass plant response rating,[2]; [14],30
same,Barnyardgrass plant response rating,[2]; [15],80
same,"Plant response rating, Barnyardgrass",[2]; [18],10
same,"Plant response rating, Barnyardgrass",[2]; [17],60
same,Velvetleaf plant response rating,[3]; [14],60
same,Velvetleaf plant response rating,[3]; [15],80
same,"Plant response rating, Velvetleaf",[3]; [16],0
same,"Plant response rating, Velvetleaf",[3]; [17],50
same,"Foxtail, Giant plant response rating",[4]; [14],80
same,"Foxtail, Giant plant response rating",[4]; [15],90
same,"Plant response rating, Foxtail, Giant",[4]; [16],70
same,"Plant response rating, Foxtail, Giant",[4]; [17],100
same,Corn plant response rating,corn (Zea mays); [14],20
same,Corn plant response rating,corn (Zea mays); [15],30
same,"Plant response rating, Corn",corn (Zea mays); [18],0
same,"Plant response rating, Corn",corn (Zea mays); [17],10
same,"Plant response rating, Sedge, Umbrella",[5]; [19],40
same,"Plant response rating, Sedge, Umbrella",[5]; [13],80
same,"Plant response rating, Sedge, Umbrella","[5]; Flood, 31 g ai/ha",0
same,"Plant response rating, Sedge, Umbrella","[5]; Flood, 62 g ai/ha",0
same,Wheat plant response rating,[6]; [14],10
same,Wheat plant response rating,[6]; [15],30
same,"Plant response rating, Wheat",[6]; [16],0
same,"Plant response rating, Wheat",[6]; [17],20
same,Morningglory plant response rating,[7]; [14],80
same,Morningglory plant response rating,[7]; [15],100
same,"Plant response rating, Morningglory",[7]; [16],0
same,"Plant response rating, Morningglory",[7]; [17],10
same,"Plant response rating, Rice",rice (Oryza sativa); [19],30
same,"Plant response rating, Rice",rice (Oryza sativa); [13],40
same,"Plant response rating, Rice","rice (Oryza sativa); Flood, 31 g ai/ha",0
same,"Plant response rating, Rice","rice (Oryza sativa); Flood, 62 g ai/ha",0
same,"Plant response rating, Barnyardgrass",[8]; [19],30
same,"Plant response rating, Barnyardgrass",[8]; [13],70
same,"Plant response rating, Barnyardgrass","[8]; Flood, 31 g ai/ha",0
same,"Plant response rating, Barnyardgrass","[8]; Flood, 62 g ai/ha",0
same,"Plant response rating, Ducksalad",[9]; [19],30
same,"Plant response rating, Ducksalad",[9]; [13],70
same,"Plant response rating, Ducksalad","[9]; Flood, 31 g ai/ha",0
same,"Plant response rating, Ducksalad","[9]; Flood, 62 g ai/ha",0
same,"Crabgrass, Large plant response rating",[10]; [14],90
same,"Crabgrass, Large plant response rating",[10]; [15],90
same,"Plant response rating, Crabgrass, Large",[10]; [18],80
same,"Plant response rating, Crabgrass, Large",[10]; [17],100
Cc1nn(-c2ccc(C(F)(F)F)cc2)nc1Sc1cccc(C(F)(F)F)c1 [Compound 88],Pigweed plant response rating,[1]; [14],80
same,Pigweed plant response rating,[1]; [15],100
same,"Plant response rating, Pigweed",[1]; [18],0
same,"Plant response rating, Pigweed",[1]; [17],50
same,Barnyardgrass plant response rating,[2]; [14],10
same,Barnyardgrass plant response rating,[2]; [15],20
same,"Plant response rating, Barnyardgrass",[2]; [18],0
same,"Plant response rating, Barnyardgrass",[2]; [17],10
same,Velvetleaf plant response rating,[3]; [14],10
same,Velvetleaf plant response rating,[3]; [15],80
same,"Plant response rating, Velvetleaf",[3]; [18],0
same,"Plant response rating, Velvetleaf",[3]; [17],0
same,"Foxtail, Giant plant response rating",[4]; [14],10
same,"Foxtail, Giant plant response rating",[4]; [15],40
same,"Plant response rating, Foxtail, Giant",[4]; [18],0
same,"Plant response rating, Foxtail, Giant",[4]; [17],40
same,Corn plant response rating,corn (Zea mays); [14],0
same,Corn plant response rating,corn (Zea mays); [15],10
same,"Plant response rating, Corn",corn (Zea mays); [18],0
same,"Plant response rating, Corn",corn (Zea mays); [17],0
same,"Plant response rating, Sedge, Umbrella",[5]; [19],0
same,"Plant response rating, Sedge, Umbrella",[5]; [13],0
same,"Plant response rating, Sedge, Umbrella","[5]; Flood, 31 g ai/ha",0
same,"Plant response rating, Sedge, Umbrella","[5]; Flood, 62 g ai/ha",0
same,Wheat plant response rating,[6]; [14],0
same,Wheat plant response rating,[6]; [15],10
same,"Plant response rating, Wheat",[6]; [18],0
same,"Plant response rating, Wheat",[6]; [17],0
same,Morningglory plant response rating,[7]; [14],10
same,Morningglory plant response rating,[7]; [15],50
same,"Plant response rating, Morningglory",[7]; [18],0
same,"Plant response rating, Morningglory",[7]; [17],0
same,"Plant response rating, Rice",rice (Oryza sativa); [19],0
same,"Plant response rating, Rice",rice (Oryza sativa); [13],0
same,"Plant response rating, Rice","rice (Oryza sativa); Flood, 31 g ai/ha",0
same,"Plant response rating, Rice","rice (Oryza sativa); Flood, 62 g ai/ha",0
same,"Plant response rating, Barnyardgrass",[8]; [19],0
same,"Plant response rating, Barnyardgrass",[8]; [13],0
same,"Plant response rating, Barnyardgrass","[8]; Flood, 31 g ai/ha",0
same,"Plant response rating, Barnyardgrass","[8]; Flood, 62 g ai/ha",0
same,"Plant response rating, Ducksalad",[9]; [19],0
same,"Plant response rating, Ducksalad",[9]; [13],0
same,"Plant response rating, Ducksalad","[9]; Flood, 31 g ai/ha",0
same,"Plant response rating, Ducksalad","[9]; Flood, 62 g ai/ha",0
same,"Crabgrass, Large plant response rating",[10]; [14],30
same,"Crabgrass, Large plant response rating",[10]; [15],80
same,"Plant response rating, Crabgrass, Large",[10]; [18],0
same,"Plant response rating, Crabgrass, Large",[10]; [17],50
